The values that follow come from PubChem BioAssay (NCI).

Several values for one entry are separate records, joined by “and”; a condition that tells them apart may be missing. Identical values can stand only once.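 Compound exposure: 48 hours, 5 concentrations, 96-well plates. Here, GI50 denotes the concentration required for 50% inhibition of growth. The concentration for full growth arrest is given as TGI.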

The first assay has as its system XF 498 CNS. The assay can be described thus: NCI anticancer screen, dose series, 48 h.
The compound `CCCC1C(=O)CCc2c(OC)ccc(OC)c21` (configuration not stated) registered a TGI of more than 100 µM. With `NC(=O)NO.O.O.O.O.O.O.O.O.O.O.O.[Ge].[Ge].[Ge].[Ge].[Ge].[O]=[Ge].[O]=[Ge].[O]=[Ge].[O]=[Ge].[O]=[Ge][OH]`, the TGI was more than 100 µM.

Regarding `O=C(Nc1nc2ccc([N+](=O)[O-])cc2s1)C(=O)C(C1OC(=O)c2ccccc21)[N+](=O)[O-]` (configuration not stated), the TGI was more than 100 µM. On to `CCC[CH2][Sn]([CH2]CCC)([S]c1cccc2cccnc12)[S]c1cccc2cccnc12`, for which the GI50 is 0.101 µM and the TGI was determined as 0.26 µM. On to `COC(=O)C1(C(C)C)CCc2c(OC)ccc(OC)c2C1=O` (configuration not stated), for which the TGI was more than 100 µM.

The next assay concerns LXFL 529 NSCLC. The assay can be described thus: NCI anticancer screen, dose series, 48 h.
Compound `Cc1cnc(NCCCN(C)C)c2c1[nH]c1ccc3cc(O)ccc3c12` registered a TGI of 1.76 µM. The same measure, in the same setting: the result for `Cc1c(C(=O)CC(=O)C(=O)Nc2ccccc2C(F)(F)F)[n+](=O)c2ccccc2n1[O-]` reads 62.1 µM; that for `Cc1cc(N(CCC#N)CCC#N)ccc1N=Nc1ccc(S(N)(=O)=O)cc1`, more than 100 µM; that for `Cc1nc2c(ccc3ncccc32)[nH]1`, more than 100 µM. Same read-out and setting: under `O=C(CCc1nc(=S)[nH][nH]1)Nc1cc(Cl)c(Cl)cc1Cl` stands more than 100 µM. As to `Nc1ccccc1S(=O)(=O)N(CC(=O)O)c1ccccc1`, the TGI is more than 100 µM.

The compound `CC1(C)C(=O)/C=C\C(=O)C(C)(C)C2=CC=C(O2)C(C)(C)C(=O)/C=C\C(=O)C(C)(C)C2=CC=C1O2` displayed a TGI of more than 100 µM. Still for that read-out and setting: under `COc1ccccc1N1C(=O)C2c3[nH]c4ccccc4c3C3CCC(C(C)(C)C)CC3C2C1=O` (configuration not stated) stands more than 100 µM; under `O=C(O)CCC(NC(=O)c1ccc(Nc2nc3ccccc3nc2-c2cccs2)cc1)C(=O)O` (configuration not stated), more than 100 µM. The same measure, in the same setting: the result for `COc1cc2ccnc([C@@H](OC(=O)c3ccccc3)c3ccc(OC)c(OC)c3OC)c2cc1OC` reads more than 100 µM; that for `CCn1c(C)nn2c(=O)c3ccccc3nc2c1=O`, more than 100 µM; that for `COC(=O)/C(C#N)=C1\NC(=O)c2ccccc21`, more than 100 µM.

As to `O=C(O)CCNCCCNCCC(=O)O`, the TGI was more than 100 µM. Consider `CC(=O)[CH-]C(=O)c1ccccc1.CC(=O)[CH-]C(=O)c1ccccc1.CN(C)c1ccc([O-])cc1.CN(C)c1ccc([O-])cc1.Cl.[Ti+4]`, for which the GI50 was 16 µM and the TGI is more than 31.6 µM. Take `NC1=NCCC1(c1ccccc1)c1ccccn1` (configuration not stated): the TGI is more than 100 µM. Same read-out and setting: the result for `CCCCCCCCCCCC(=O)OCCOCCOCCOCCOCCOCc1ccccc1` reads more than 100 µM.

Regarding `CCCCCCCCCCCCCC(=O)OC(/C=C/C(C)C)C(O)C(O)C(OC)C(=O)NC1CCCCN(C)C1=O` (configuration not stated), the GI50 was more than 49 µM; the TGI is 6.89 µM and > 49 µM. Take `CCOC(=O)CCC1(C(=O)OCC)CCCCC1=O` (configuration not stated): the TGI is more than 100 µM. Still for that read-out and setting: under `COC(=O)c1ccccc1NC(=O)C(=O)Cc1nc2c3c(ccc2[nH]c1=O)C(=O)c1ccccc1C3=O` stands more than 100 µM; under `CCOC(=O)C(C)(C)Oc1ccc2c(-c3ccccc3)cc(=O)oc2c1`, 94.8 µM. Compound `CCCC1C(=O)CCc2c(OC)ccc(OC)c21` (configuration not stated) displayed a TGI of more than 100 µM. Same read-out and setting: under `NC(=O)NO.O.O.O.O.O.O.O.O.O.O.O.[Ge].[Ge].[Ge].[Ge].[Ge].[O]=[Ge].[O]=[Ge].[O]=[Ge].[O]=[Ge].[O]=[Ge][OH]` stands more than 100 µM; under `O=C(Nc1nc2ccc([N+](=O)[O-])cc2s1)C(=O)C(C1OC(=O)c2ccccc21)[N+](=O)[O-]` (configuration not stated), more than 100 µM. As for `COc1cc2cc(OC)c3cc4c(cc3c2c(OC)c1OC)OCO4`, the TGI is more than 100 µM. For `CCC[CH2][Sn]([CH2]CCC)([S]c1cccc2cccnc12)[S]c1cccc2cccnc12`, the GI50 was 0.039 µM and the TGI came to 0.163 µM. For `COC(=O)C1(C(C)C)CCc2c(OC)ccc(OC)c2C1=O` (configuration not stated), the TGI is more than 100 µM.

The subject of another assay is DLD-1 colon. Kind of assay: NCI anticancer screen, dose series, 48 h.
On to `Cc1cnc(NCCCN(C)C)c2c1[nH]c1ccc3cc(O)ccc3c12`, for which the TGI was determined as 3.7 µM. The same measure, in the same setting: the result for `Cc1cc(N(CCC#N)CCC#N)ccc1N=Nc1ccc(S(N)(=O)=O)cc1` reads more than 100 µM; that for `Cc1nc2c(ccc3ncccc32)[nH]1`, more than 100 µM. Take `C1=C2/CC[C@H](Sc3ccccc3)C2C2(CCCCC/1)OCCO2` (some centres not stated): the TGI was more than 100 µM. The same measure, in the same setting: under `Nc1ccccc1S(=O)(=O)N(CC(=O)O)c1ccccc1` stands more than 100 µM; under `COc1ccccc1N1C(=O)C2c3[nH]c4ccccc4c3C3CCC(C(C)(C)C)CC3C2C1=O` (configuration not stated), more than 100 µM; under `Cc1cc(NS(=O)(=O)c2ccc(Nc3c4ccccc4nc4c(C(=O)N5CCN(CCOS(C)(=O)=O)CC5)cccc34)cc2)no1`, more than 100 µM. On the same count and under the same terms, under `O=C(O)CCC(NC(=O)c1ccc(Nc2nc3ccccc3nc2-c2cccs2)cc1)C(=O)O` (configuration not stated) stands more than 100 µM; under `COc1cc2ccnc([C@@H](OC(=O)c3ccccc3)c3ccc(OC)c(OC)c3OC)c2cc1OC`, 80.2 µM. For `O=C(Nc1ccccc1)c1c(O)[nH]c(=S)[nH]c1=O`, the GI50 was 109 µM; the TGI was 90 µM and > 250 µM. In turn, `CCn1c(C)nn2c(=O)c3ccccc3nc2c1=O` registered a TGI of more than 100 µM. For `COC(=O)/C(C#N)=C1\NC(=O)c2ccccc21`, the TGI was more than 100 µM. Consider `O=C(O)CCNCCCNCCC(=O)O`, for which the TGI is more than 100 µM.

Consider `CC(=O)[CH-]C(=O)c1ccccc1.CC(=O)[CH-]C(=O)c1ccccc1.CN(C)c1ccc([O-])cc1.CN(C)c1ccc([O-])cc1.Cl.[Ti+4]`, for which the GI50 is 15.6 µM and the TGI is more than 31.6 µM. `O=C1/C(=C/c2ccc(O)c(O)c2)CCC/C1=C\c1ccc(O)c(O)c1` gave a TGI of 7.22 µM.

`CCCCCCCCCCCC(=O)OCCOCCOCCOCCOCCOCc1ccccc1` came in with a TGI of more than 100 µM. In the case of `CCCCCCCCCCCCCC(=O)OC(/C=C/C(C)C)C(O)C(O)C(OC)C(=O)NC1CCCCN(C)C1=O` (configuration not stated), the GI50 is more than 49 µM; the TGI was 6.56 µM and > 49 µM. On to `CCOC(=O)CCC1(C(=O)OCC)CCCCC1=O` (configuration not stated), for which the TGI is more than 100 µM. Same read-out and setting: the result for `COC(=O)c1ccccc1NC(=O)C(=O)Cc1nc2c3c(ccc2[nH]c1=O)C(=O)c1ccccc1C3=O` reads more than 100 µM.
